Columns and labels:
[1] = Cytotoxicity against human CCRF-CEM assessed reduction in cell viability after 4 days by MTT assay; format: cell-based; details: CCRF-CEM cells
[2] = tested on: Huh-7; test: Cytotoxicity against human HuH7 cells assessed reduction in cell viability after 3 to 5 days by cellular ribosomal RNA amplification assay
[3] = biological target: RNA-directed RNA polymerase (Hepacivirus hominis) (UniProt O39930); details: Hepatitis C virus subtype 1b
Description: Inhibition of NS5B polymerase in wild type HCV genotype 1b infected in human Huh7 replicon cells after 5 days by RT-PCR assay

[4] = tested on: Vero; format: cell-based; details: chlorocebus sabaeus, 72 h
[5] = Cytotoxicity against human HuH7 cells assessed reduction in cell viability after 3 to 5 days by MTT assay; format: cell-based, Huh-7
[6] = Cytotoxicity against human PBMC assessed reduction in cell viability after 5 days by MTT assay; format: cell-based; details: PBMC
[7] = biological target: DNA-directed RNA polymerase, mitochondrial (Homo sapiens, UniProt O00411); test: Substrate activity at human POLRMT assessed as 5-radiolabled RNA/DNA incorporation levels at 100 uM after 2 hrs by PAGE analysis; format: ADME
[8] = tested on: HepG2; test: Mitochondrial toxicity in human HepG2 cells assessed as lactic acid production at 50 uM followed by medium plus drugs replenishment every 3 to 4 days for 14 days relative to control; format: cell-based; details: hepg2, 336 h
[9] = Stability in Beagle dog plasma assessed as compound remaining at 2 uM up to 2 hrs by LC-MS/MS analysis; format: ADME, cell-free, Canis lupus familiaris; details: read-out: Stability
[10] = tested on: cytochrome c oxidase subunit 2 DNA level; test: Mitochondrial toxicity in human HepG2 cells assessed as inhibition of cytochrome c oxidase subunit 2 DNA level followed by medium plus drugs replenishment every 3 to 4 days for 14 days relative to control; format: cell-based
[11] = tested on: nuclear ribosomal-DNA level; test: Mitochondrial toxicity in human HepG2 cells assessed as inhibition of nuclear ribosomal-DNA level at 50 uM followed by medium plus drugs replenishment every 3 to 4 days for 14 days relative to control; format: cell-based
[12] = tested on: nuclear ribosomal-DNA level; test: in vitro; details: human, HepG2 cells
[13] = Stability in Sprague-Dawley rat plasma assessed as compound remaining at 2 uM after 2 hrs by LC-MS/MS analysis; format: ADME, cell-free; details: read-out: Stability
[14] = tested on: cytochrome c oxidase subunit 2 DNA level; test: Mitochondrial toxicity in human HepG2 cells assessed as inhibition of cytochrome c oxidase subunit 2 DNA level at 50 uM followed by medium plus drugs replenishment every 3 to 4 days for 14 days relative to control; format: cell-based

Chain of RNA-directed RNA polymerase (Hepacivirus hominis) (O39930 1-591): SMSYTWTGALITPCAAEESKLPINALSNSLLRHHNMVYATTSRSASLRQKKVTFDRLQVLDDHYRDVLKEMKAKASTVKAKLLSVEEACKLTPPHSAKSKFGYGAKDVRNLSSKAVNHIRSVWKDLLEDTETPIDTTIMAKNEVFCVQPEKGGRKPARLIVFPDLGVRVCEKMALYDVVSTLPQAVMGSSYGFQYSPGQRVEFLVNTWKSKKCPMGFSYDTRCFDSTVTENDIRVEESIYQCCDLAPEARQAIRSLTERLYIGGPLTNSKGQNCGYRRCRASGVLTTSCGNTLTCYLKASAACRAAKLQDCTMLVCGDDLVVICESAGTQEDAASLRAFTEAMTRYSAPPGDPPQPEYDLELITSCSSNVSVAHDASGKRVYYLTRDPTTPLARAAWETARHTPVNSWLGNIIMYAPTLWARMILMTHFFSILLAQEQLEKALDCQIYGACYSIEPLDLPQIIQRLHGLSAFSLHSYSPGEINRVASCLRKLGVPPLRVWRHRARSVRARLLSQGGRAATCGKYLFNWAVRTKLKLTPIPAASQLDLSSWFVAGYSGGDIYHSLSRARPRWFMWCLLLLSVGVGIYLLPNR
Chain of DNA-directed RNA polymerase, mitochondrial (O00411 whole entry): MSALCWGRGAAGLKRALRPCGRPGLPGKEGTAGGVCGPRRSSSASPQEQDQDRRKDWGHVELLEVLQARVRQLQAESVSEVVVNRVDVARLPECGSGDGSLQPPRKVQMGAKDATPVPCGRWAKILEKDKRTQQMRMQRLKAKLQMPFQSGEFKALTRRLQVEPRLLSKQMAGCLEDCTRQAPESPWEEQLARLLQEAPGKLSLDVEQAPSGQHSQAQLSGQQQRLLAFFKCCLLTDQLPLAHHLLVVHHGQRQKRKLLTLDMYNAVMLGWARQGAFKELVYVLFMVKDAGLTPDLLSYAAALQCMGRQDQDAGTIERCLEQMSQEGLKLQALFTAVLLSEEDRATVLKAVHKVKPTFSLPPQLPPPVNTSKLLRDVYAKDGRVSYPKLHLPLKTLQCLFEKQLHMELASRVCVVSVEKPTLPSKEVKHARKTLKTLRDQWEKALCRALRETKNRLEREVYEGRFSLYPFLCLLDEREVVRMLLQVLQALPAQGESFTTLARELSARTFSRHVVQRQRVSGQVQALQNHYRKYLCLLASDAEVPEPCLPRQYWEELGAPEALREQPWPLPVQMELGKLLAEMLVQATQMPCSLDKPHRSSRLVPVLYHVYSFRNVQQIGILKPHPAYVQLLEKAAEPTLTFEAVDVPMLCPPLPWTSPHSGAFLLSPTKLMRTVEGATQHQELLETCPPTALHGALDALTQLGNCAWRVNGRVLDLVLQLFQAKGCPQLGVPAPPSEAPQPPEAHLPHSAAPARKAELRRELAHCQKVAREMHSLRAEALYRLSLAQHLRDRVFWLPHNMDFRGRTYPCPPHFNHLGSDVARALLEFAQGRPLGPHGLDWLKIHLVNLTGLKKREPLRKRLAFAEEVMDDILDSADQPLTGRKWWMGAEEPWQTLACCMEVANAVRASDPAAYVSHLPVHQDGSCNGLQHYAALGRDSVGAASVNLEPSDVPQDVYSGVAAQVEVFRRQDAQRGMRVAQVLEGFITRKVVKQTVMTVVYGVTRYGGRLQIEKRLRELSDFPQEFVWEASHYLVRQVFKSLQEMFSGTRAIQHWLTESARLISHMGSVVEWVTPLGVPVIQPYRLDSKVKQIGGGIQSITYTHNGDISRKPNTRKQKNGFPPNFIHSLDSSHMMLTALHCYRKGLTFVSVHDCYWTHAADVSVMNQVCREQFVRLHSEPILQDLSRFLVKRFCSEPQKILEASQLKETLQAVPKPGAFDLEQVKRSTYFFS

| Compound | CC50 at 96 h [1] [µM] | CC50 [2] [µM] | EC90 [3] [µM] | CC50 [4] [µM] | CC50 at 120 h [6] [µM] | further results |
| --- | --- | --- | --- | --- | --- | --- |
| Nc1nc2c(ncn2[C@@H]2O[C@H](CO)[C@@H](O)[C@]2(F)Br)c(=O)[nH]1 | > 100 | > 10 | > 10 | > 100 |  |  |
| Nc1ccn([C@@H]2O[C@H](CO)[C@@H](O)[C@]2(F)Br)c(=O)n1 | > 100 | > 10 | 9.5 | > 100 |  |  |
| CC(C)OC(=O)[C@H](C)NP(=O)(OC[C@H]1O[C@@H](n2cnc3c(=O)[nH]c(N)nc32)[C@](F)(Br)[C@H]1O)Oc1ccccc1 (stereo not given in full) | > 100 |  | 1.8 |  |  |  |
| CC(C)OC(=O)[C@H](C)NP(=O)(OC[C@H]1O[C@@H](n2cnc3c(N)ncnc32)[C@](F)(Br)[C@H]1O)Oc1ccccc1 (stereo not given in full) | > 100 |  |  |  | > 100 | CC50 [5]: > 10 µM |
| C[C@@]1(O)[C@H](O)[C@@H](COP(=O)(O)OP(=O)(O)OP(=O)(O)O)O[C@H]1n1ccc(=O)[nH]c1=O |  |  |  |  |  | Activity [7]: 9.8% |
| CC(C)OC(=O)[C@H](C)NP(=O)(OC[C@H]1O[C@@H](n2ccc(=O)[nH]c2=O)[C@](F)(Br)[C@H]1O)Oc1ccccc1 (mixture of isomers) | > 100 | > 10 | 0.9 |  | > 100 | Activity [8]: 140%; remaining at 2 h, 2 µM [9]: 100%; IC50 at 14 days [10]: > 50 µM; inhibition at 336 h, 50 µM [11]: 40%; IC50 at 14 days [12]: > 50 µM; remaining at 2 h, 2 µM [13]: 0.2%; inhibition at 336 h, 50 µM [14]: 39% |
